Experiment in all cases: ≥ marks a high value that may be exact or a test limit, other limits are often not marked, values filed in µg/mL are converted to µM
For assay [1], the system named is Candida albicans ATCC 10231.
In assay [2] the test system is Cryptococcus neoformans ATCC 32045.
Assay [3] concerns Escherichia coli ATCC 2592.
In assay [4] the test system is Pseudomonas aeruginosa ATCC 10145.
Assay [5] concerns Staphylococcus aureus ATCC 33591.
In assay [6] the test system is Escherichia coli JW0013.
Assay [7] deals with Escherichia coli MG1655.
Assay [8] concerns Klebsiella pneumoniae ATCC 700603.
In assay [9] the test system is Staphylococcus aureus ATCC 25923.
In assay [10] the test system is Bacillus cereus.
The subject of assay [11] is Leuconostoc lactis.
Assay [12] deals with Listeria innocua.
Assay [13] concerns Micrococcus luteus.
Assay [14] deals with Staphylococcus aureus ATCC 29213.
Assay [15] has as its system Staphylococcus epidermidis.
The subject of assay [16] is Streptococcus uberis.
Assay [17] relates to Candida albicans.
The test system of assay [18] is Pseudomonas aeruginosa PAO1.
The subject of assay [19] is Escherichia coli ATCC 25726.

Converted amounts (≈) assume the structure as drawn. A value given as a limit tells only on which side of the number the result lay.

`CC(C)C[C@H](NC(=O)[C@H](CCCCN)NC(=O)[C@H](CC(C)C)NC(=O)[C@H](CCCCN)NC(=O)[C@H](CC(C)C)NC(=O)[C@H](CCCCN)NC(=O)[C@H](CC(C)C)NC(=O)[C@H](CCCCN)NC(=O)[C@H](CC(C)C)NC(=O)[C@H](CCCCN)NC(=O)[C@H](CC(C)C)NC(=O)[C@H](CCCCN)NC(=O)[C@H](CC(C)C)NC(=O)[C@H](CCCCN)NC(=O)[C@@H](N)CC(C)C)C(=O)N[C@@H](CCCCN)C(=O)O` [LKLKLKLKLKLKLKLK]: the MIC (as a rule, the least concentration at which growth counts as inhibited) in [1] is 181 µM (≈ 354 µg/mL); in assay [2], 23 µM (≈ 44.9 µg/mL); in assay [3], not below 64.1 µM; in assay [4] it was not below 66.7 µM; in assay [5], not below 90.7 µM.
In [6], `CC[C@H](C)[C@H](NC(=O)[C@H](CCCN=C(N)N)NC(=O)[C@H](CCCN=C(N)N)NC(=O)[C@@H]1CCCN1C(=O)[C@@H]1CCCN1C(=O)[C@H](CCCN=C(N)N)NC(=O)[C@@H]1CCCN1C(=O)[C@H](CCCN=C(N)N)NC(=O)[C@@H]1CCCN1C(=O)[C@H](CC(C)C)NC(=O)[C@H](Cc1ccc(O)cc1)NC(=O)[C@@H]1CCCN1C(=O)[C@@H]1CCCN1C(=O)[C@H](CCCCN)NC(=O)[C@H](Cc1c[nH]c2ccccc12)NC(=O)[C@@H](N)C(C)C)C(=O)N[C@@H](Cc1ccc(O)cc1)C(=O)N[C@@H](CC(N)=O)C(=O)N[C@@H](CCCN=C(N)N)C(N)=O` [VWKPPYLPRPRPPRRIYNR] displayed an MIC of 1.95 µM (≈ 4.8 µg/mL). That is a single-digit micromolar value.
`CC[C@H](C)[C@H](NC(=O)[C@H](CCCN=C(N)N)NC(=O)[C@H](CCCN=C(N)N)NC(=O)[C@@H]1CCCN1C(=O)[C@@H]1CCCN1C(=O)[C@H](CCCN=C(N)N)NC(=O)[C@@H]1CCCN1C(=O)[C@H](CCCN=C(N)N)NC(=O)[C@@H]1CCCN1C(=O)[C@H](CC(C)C)NC(=O)[C@H](Cc1ccc(O)cc1)NC(=O)[C@@H]1CCCN1C(=O)[C@@H]1CCCN1C(=O)[C@H](CCCCN)NC(=O)[C@H](CC(=O)O)NC(=O)[C@@H](N)CC(C)C)C(=O)N[C@@H](Cc1ccc(O)cc1)C(=O)N[C@@H](CC(N)=O)C(=O)N[C@@H](CCCN=C(N)N)C(N)=O` [LDKPPYLPRPRPPRRIYNR] showed an MIC in assay [6] of 2 µM (≈ 4.8 µg/mL). This MIC and that of the compound before are within 1.5-fold of each other.
Turning to `CC(C)C[C@H](NC(=O)[C@H](Cc1ccc(O)cc1)NC(=O)[C@H](Cc1cnc[nH]1)NC(=O)[C@H](CCCCN)NC(=O)[C@H](CC(C)C)NC(=O)[C@H](C)NC(=O)[C@H](CC(C)C)NC(=O)[C@H](CCCCN)NC(=O)CNC(=O)[C@@H](NC(=O)[C@@H](NC(=O)[C@H](CCCCN)NC(=O)[C@@H](NC(=O)[C@H](CCC(=O)O)NC(=O)[C@H](C)NC(=O)[C@H](CCCCN)NC(=O)[C@H](CCCCN)NC(=O)[C@H](CC(C)C)NC(=O)[C@H](CC(C)C)NC(=O)[C@@H](NC(=O)[C@H](CCCN=C(N)N)NC(=O)[C@H](Cc1c[nH]c2ccccc12)NC(=O)CN)[C@@H](C)O)C(C)C)[C@@H](C)O)C(C)C)C(=O)O` [GWRTLLKKAEVKTVGKLALKHYL], the MIC in assay [7] turned out to be 8.3 µM (≈ 22 µg/mL); in [8], 4.15 µM (≈ 11 µg/mL); in [4] it was 0.25 µM (≈ 0.663 µg/mL); in assay [9] it was 4.15 µM (≈ 11 µg/mL).
As for `CC[C@H](C)[C@H](NC(=O)[C@H](CCCN=C(N)N)NC(=O)[C@H](CCCN=C(N)N)NC(=O)[C@@H]1CCCN1C(=O)[C@@H]1CCCN1C(=O)[C@H](CCCN=C(N)N)NC(=O)[C@@H]1CCCN1C(=O)[C@H](CCCN=C(N)N)NC(=O)[C@@H]1CCCN1C(=O)[C@H](CC(C)C)NC(=O)[C@H](Cc1ccc(O)cc1)NC(=O)[C@@H]1CCCN1C(=O)[C@@H]1CCCN1C(=O)[C@H](CCCCN)NC(=O)[C@H](Cc1ccc(O)cc1)NC(=O)[C@@H](N)C(C)C)C(=O)N[C@@H](Cc1ccc(O)cc1)C(=O)N[C@@H](CC(N)=O)C(=O)N[C@@H](CCCN=C(N)N)C(N)=O` [VYKPPYLPRPRPPRRIYNR], in assay [6], the MIC is 1.97 µM (≈ 4.8 µg/mL).
Take `CC[C@H](C)[C@H](NC(=O)CNC(=O)[C@H](Cc1ccccc1)NC(=O)[C@H](CC(C)C)NC(=O)CN)C(=O)N[C@@H](CC(C)C)C(=O)NCC(=O)N[C@@H](CO)C(=O)N[C@H](C(=O)N[C@@H](C)C(=O)N[C@@H](CCCCN)C(=O)N[C@@H](Cc1cnc[nH]1)C(=O)N[C@H](C(=O)N[C@@H](CC(C)C)C(=O)N1CCC[C@H]1C(=O)N[C@@H](Cc1cnc[nH]1)C(=O)N[C@H](C(=O)N[C@H](C(=O)N1CCC[C@H]1C(=O)N[C@H](C(=O)N[C@H](C(=O)N[C@@H](C)C(=O)N[C@@H](CCC(=O)O)C(=O)N[C@@H](Cc1cnc[nH]1)C(=O)N[C@@H](CC(C)C)C(N)=O)C(C)C)C(C)C)[C@@H](C)CC)C(C)C)C(C)C)C(C)C` [GLFGILGSVAKHVLPHVIPVVAEHL]: the MIC was not below 38.4 µM in [10]; 9.6 µM (≈ 25 µg/mL) in assay [11]; 9.6 µM (≈ 25 µg/mL) in assay [12]; 7.68 µM (≈ 20 µg/mL) in assay [13]; 19.2 µM (≈ 50 µg/mL) in assay [9]; 9.6 µM (≈ 25 µg/mL) in assay [14]. The MIC in [15] was 9.6 µM (≈ 25 µg/mL); in assay [16] it was 19.2 µM (≈ 50 µg/mL).
Take `CC[C@H](C)[C@H](NC(=O)[C@H](CCCN=C(N)N)NC(=O)[C@H](CCCN=C(N)N)NC(=O)[C@@H]1CCCN1C(=O)[C@@H]1CCCN1C(=O)[C@H](CCCN=C(N)N)NC(=O)[C@@H]1CCCN1C(=O)[C@H](CCCN=C(N)N)NC(=O)[C@@H]1CCCN1C(=O)[C@H](CC(C)C)NC(=O)[C@H](Cc1ccc(O)cc1)NC(=O)CNC(=O)[C@@H]1CCCN1C(=O)[C@H](CCCCN)NC(=O)[C@H](CC(=O)O)NC(=O)[C@@H](N)C(C)C)C(=O)N[C@@H](Cc1ccc(O)cc1)C(=O)N[C@@H](CC(N)=O)C(=O)N[C@@H](CCCN=C(N)N)C(N)=O` [VDKPGYLPRPRPPRRIYNR]: the MIC in assay [6] worked out at 2.04 µM (≈ 4.8 µg/mL).
The same measure, in the same setting: the result for `CC[C@H](C)[C@H](NC(=O)[C@@H]1CCCN1C(=O)[C@H](CCCN=C(N)N)NC(=O)[C@@H]1CCCN1C(=O)[C@@H]1CCCN1C(=O)[C@@H](NC(=O)[C@@H]1CCCN1C(=O)[C@H](CCCN=C(N)N)NC(=O)[C@@H]1CCCN1C(=O)[C@H](CCCCN)NC(=O)[C@H](Cc1ccc(O)cc1)NC(=O)[C@H](CO)NC(=O)CNC(=O)[C@H](CCCCN)NC(=O)[C@H](CC(=O)O)NC(=O)[C@@H](N)C(C)C)[C@@H](C)O)C(=O)N[C@@H](Cc1ccc(O)cc1)C(=O)N[C@@H](CC(N)=O)C(=O)N[C@@H](CCCN=C(N)N)C(=O)N[C@@H](CC(N)=O)C(=O)O` [VDKGSYKPRPTPPRPIYNRN] reads 0.3 µM (≈ 0.707 µg/mL).
As for `CSCC[C@H](NC(=O)[C@@H](NC(=O)[C@@H](N)CCCCN)C(C)C)C(=O)N[C@@H](CCCN=C(N)N)C(=O)N[C@@H](CCC(=O)O)C(=O)N[C@H](C(=O)N[C@@H](CC(C)C)C(=O)NCC(=O)N[C@@H](Cc1ccc(O)cc1)C(=O)N[C@@H](CCC(=O)O)C(=O)N[C@@H](CCCN=C(N)N)C(=O)N[C@@H](CC(N)=O)C(=O)N[C@@H](CO)C(=O)N[C@@H](Cc1ccc(O)cc1)C(=O)N[C@@H](CCCCN)C(=O)N[C@@H](CCCCN)C(=O)N[C@@H](Cc1ccccc1)C(=O)N[C@@H](Cc1ccccc1)C(=O)N[C@@H](CC(C)C)C(=O)N[C@@H](CCCN=C(N)N)C(N)=O)C(C)C` [KVMREVLGYERNSYKKFFLR], the MIC in assay [17] is 128 µM (≈ 328 µg/mL); in assay [7], not below 128 µM; in assay [18] it was more than 128 µM; in assay [9], more than 128 µM.
`CC[C@H](C)[C@H](NC(=O)[C@H](CCCN=C(N)N)NC(=O)[C@H](CCCN=C(N)N)NC(=O)[C@@H]1CCCN1C(=O)[C@@H]1CCCN1C(=O)[C@H](CCCN=C(N)N)NC(=O)[C@H](CCCN=C(N)N)NC(=O)[C@H](CCCN=C(N)N)NC(=O)[C@@H]1CCCN1C(=O)[C@H](CC(C)C)NC(=O)[C@H](Cc1ccc(O)cc1)NC(=O)[C@@H]1CCCN1C(=O)[C@H](CCCN=C(N)N)NC(=O)[C@H](CCCCN)NC(=O)[C@H](CC(=O)O)NC(=O)[C@@H](N)C(C)C)C(=O)N[C@@H](Cc1ccc(O)cc1)C(=O)N[C@@H](CC(N)=O)C(=O)N[C@@H](CCCN=C(N)N)C(N)=O` [VDKRPYLPRRRPPRRIYNR] returned a minimal inhibitory concentration (MIC) in assay [6] of 0.638 µM (≈ 1.6 µg/mL).
As to `CC[C@H](C)[C@H](N)C(=O)N[C@H](C(=O)N[C@@H](CCC(=O)O)C(=O)N[C@@H](CCCCN)C(=O)N[C@@H](CC(C)C)C(=O)N[C@H](C(=O)N[C@@H](CC(N)=O)C(=O)N[C@H](C(=O)N[C@@H](C)C(=O)N[C@@H](CC(C)C)C(=O)NCC(=O)N[C@@H](CC(C)C)C(=O)N[C@@H](CC(C)C)C(=O)N[C@@H](CO)C(=O)NCC(=O)N[C@@H](CC(C)C)C(N)=O)[C@@H](C)O)C(C)C)[C@@H](C)CC` [IIEKLVNTALGLLSGL], the MIC in [11] was determined as 25 µM (≈ 41.3 µg/mL).
Turning to `CC(C)C[C@H](NC(=O)[C@H](CC(C)C)NC(=O)[C@H](CC(N)=O)NC(=O)[C@H](C)NC(=O)CNC(=O)[C@H](Cc1ccccc1)NC(=O)[C@H](CCCCN)NC(=O)[C@H](CC(C)C)NC(=O)[C@H](C)NC(=O)[C@H](CCCCN)NC(=O)CNC(=O)[C@H](CC(C)C)NC(=O)[C@@H](NC(=O)[C@H](CO)NC(=O)CNC(=O)[C@H](Cc1ccccc1)NC(=O)CN)C(C)C)C(N)=O` [GFGSVLGKALKFGANLL], the values for the MIC in assay [19] and in assay [9] were not below 50 µM and 12.5 µM (≈ 21.1 µg/mL), respectively.

For the origin of these results see DBAASP.
